As a reminder, the inhibition is the change of the read-out against control, counted positive when it falls.

This is an account of results in US10544103B2, “5-HT2 antagonists” (ANAMAR AB, priority 2015, dated 2020).

For experiment [1], the target named is T1, 5-HT2B receptor (Homo sapiens, UniProt P41595).
T1 construct: host or cells: CHO-K1
The experiment in a line: 5-HT2B receptor antagonism, inhibition of 5-HT stimulated IP-1 accumulation (HTRF) in CHO-K1 cells. As to conditions: % inhibition of 5-HT (5 nM) induced effect. The format is cell-based. How it is done:
(§1) 5-HT2B receptor antagonism (performed at Eurofins Panlabs Taiwan, Ltd.) was determined in CHO-K1 cells expressing human receptor protein as inhibition of 5-HT (5 nM) stimulated IP-1 accumulation measured by HTRF quantitation. SB 206553 was used as a standard reference compound. The antagonistic response is expressed as % inhibition of the 5-HT induced effect.
(In general: In TR-FRET formats the signal depends on donor and acceptor labels being close together.)

Experiment [2] concerns the target T1, 5-HT2B receptor. Description: 5-HT2B receptor agonism, IP-1 accumulation in CHO-K1 cells without prior 5-HT stimulation. The format is cell-based. Conditions: % of IP-1 accumulation induced by 5-HT (1 uM). How it is done: as §1
5-HT2B receptor agonism (performed at Eurofins Panlabs Taiwan, Ltd.) was determined in the same model as described above in Ex. 117. without prior stimulation with 5-HT. The agonistic response is expressed as % of the IP-1 accumulation induced by 5-HT (1 uM) stimulation.

The target of experiment [3] is T1, 5-HT2B receptor. Description: 5-HT2B receptor binding, 3H-LSD ligand displacement assay. As to conditions: for inhibition at 0.001 µM: 0.001 uM compound; for inhibition at 0.01 µM: 0.01 uM compound; for inhibition at 0.1 µM: 0.1 uM compound; for inhibition at 1 µM: 1 uM compound; for inhibition at 10 µM: 10 uM compound. How it is done: 5-HT2B receptor binding (performed at Eurofins Panlabs Taiwan, Ltd.) to human receptor protein expressed in CHO-K1 cells was determined in a ligand displacement assay using ^3H-lysergic acid diethylamide (LSD) as radioligand and ketanserine as a standard reference compound. Data is presented as % displacement of radioligand at indicated compound concentrations, see Table 1 and Table 2.

T1 sequence (P41595 whole entry): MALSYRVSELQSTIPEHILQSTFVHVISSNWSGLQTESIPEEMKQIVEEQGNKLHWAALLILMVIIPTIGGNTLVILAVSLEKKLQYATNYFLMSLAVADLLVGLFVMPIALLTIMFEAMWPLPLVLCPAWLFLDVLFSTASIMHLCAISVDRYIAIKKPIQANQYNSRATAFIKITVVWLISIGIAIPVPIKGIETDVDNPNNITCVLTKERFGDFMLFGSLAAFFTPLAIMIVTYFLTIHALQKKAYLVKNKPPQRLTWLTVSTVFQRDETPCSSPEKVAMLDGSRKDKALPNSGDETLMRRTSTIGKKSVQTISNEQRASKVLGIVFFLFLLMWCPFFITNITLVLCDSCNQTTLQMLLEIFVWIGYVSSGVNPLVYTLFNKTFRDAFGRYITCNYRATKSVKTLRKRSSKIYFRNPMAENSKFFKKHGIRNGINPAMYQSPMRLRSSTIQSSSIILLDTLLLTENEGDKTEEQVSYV

Regarding `COc1ccccc1C1=NN(C(=N)N)CC1` [Example 1, 3-(2-Methoxyphenyl)-4,5-dihydro-1H-pyrazole-1-carboximidamide], on 5-HT2B receptor [1], the inhibition at 0.01 µM was 2%, the inhibition at 0.1 µM came out at 0%, the inhibition at 1 µM came to 72% and the inhibition at 10 µM was determined as 107%. For the same molecule, on 5-HT2B receptor [2], the activation at 0.01 µM was -1%, the activation at 0.1 µM was -8%, the activation at 1 µM was -5% and the activation at 10 µM is -1%.
`C[C@@H]1CN(C(=N)N)N=C1c1cccc(Cl)c1O` (single isomer, unassigned) [Example 73, (R)*-3-(3-chloro-2-hydroxyphenyl)-4-methyl-4,5-dihydro-1H-pyrazole-1-carboximidamide]: at 5-HT2B receptor [3], the inhibition at 0.001 µM was determined as 49%, the inhibition at 0.01 µM amounted to 83% and the inhibition at 0.1 µM was determined as 99%. Moreover, on 5-HT2B receptor [1], the inhibition at 0.0001 µM amounted to 29%, the inhibition at 0.001 µM worked out at 87%, the inhibition at 0.01 µM worked out at 97% and the inhibition at 0.1 µM was determined as 97%. Besides, the inhibition at 1 µM against 5-HT2B receptor [1] was 98%. In addition, at 5-HT2B receptor [2], the activation at 0.0001 µM came to 3%, the activation at 0.001 µM worked out at 4%, the activation at 0.01 µM was found to be 3% and the activation at 0.1 µM stood at 3%.
For the molecule `C[C@@H]1CN(C(=N)NCc2ccccc2)N=C1c1cccc(Cl)c1O` (single isomer, unassigned) [Example 76, (R)*—N-Benzyl-3-(3-chloro-2-hydroxyphenyl)-4-methyl-4,5-dihydro-1H-pyrazole-1-carboximidamide], at 5-HT2B receptor [3], the inhibition at 0.001 µM was 91%, the inhibition at 0.01 µM was found to be 101% and the inhibition at 0.1 µM came out at 103%. On 5-HT2B receptor [1], the inhibition at 0.0001 µM amounted to 79%, the inhibition at 0.001 µM was determined as 95%, the inhibition at 0.01 µM was 99% and the inhibition at 0.1 µM was 99%. Besides, on 5-HT2B receptor [1], the inhibition at 1 µM stood at 95%. Besides, at 5-HT2B receptor [2], the activation at 0.0001 µM was found to be 0%, the activation at 0.001 µM was found to be 1%, the activation at 0.01 µM worked out at 3% and the activation at 0.1 µM is -1%.
Take `C[C@@H]1CN(C(=N)N)N=C1c1ccccc1O` (single isomer, unassigned) [Example 38]: at 5-HT2B receptor [3], the inhibition at 0.001 µM was 19%, the inhibition at 0.01 µM was 76%, the inhibition at 0.1 µM was found to be 98% and the inhibition at 1 µM is 102%. For the same molecule, at 5-HT2B receptor [3], the inhibition at 10 µM came out at 104%. On 5-HT2B receptor [1], the inhibition at 0.0001 µM turned out to be 23%, the inhibition at 0.001 µM was determined as 27%, the inhibition at 0.01 µM is 75% and the inhibition at 0.1 µM is 100%. Moreover, the inhibition at 1 µM against 5-HT2B receptor [1] was found to be 102%. In addition, at 5-HT2B receptor [2], the activation at 0.0001 µM was -2%, the activation at 0.001 µM was -1%, the activation at 0.01 µM was -2% and the activation at 0.1 µM was 0%. Further, at 5-HT2B receptor [2], the activation at 1 µM is -2%.
With `N=C(NCc1ccccc1)N1CCC(c2ccccc2Cl)=N1` [Example 21, N-Benzyl-3-(2-chlorophenyl)-4,5-dihydro-1H-pyrazole-1-carboximidamide], at 5-HT2B receptor [3], the inhibition at 0.1 µM amounted to 59% and the inhibition at 1 µM was 96%. On 5-HT2B receptor [1], the inhibition at 0.001 µM is -6%, the inhibition at 0.01 µM is 10%, the inhibition at 0.1 µM amounted to 41% and the inhibition at 1 µM came out at 104%. For the same molecule, at 5-HT2B receptor [1], the inhibition at 10 µM is 113%. Also, at 5-HT2B receptor [2], the activation at 0.001 µM came to 3%, the activation at 0.01 µM was -5%, the activation at 0.1 µM is -9% and the activation at 1 µM is -6%. Moreover, the activation at 10 µM on 5-HT2B receptor [2] is -13%.
On to `CCOC(=O)NC(=N)N1CC(C)C(c2cccc(Cl)c2OC(=O)OCC)=N1` (centres unmarked) [Example 118, Ethyl ((3-(3-chloro-2-((ethoxycarbonyl)oxy)phenyl)-4-methyl-4,5-dihydro-1H-pyrazol-1-yl)(imino)methyl)carbamate], for which, at 5-HT2B receptor [3], the inhibition at 0.01 µM is 0%, the inhibition at 0.1 µM came out at 54% and the inhibition at 1 µM came out at 91%.
For `COc1cccc(Cl)c1C1=NN(C(=N)N)CC1` [Example 33, 3-(2-Chloro-6-methoxyphenyl)-4,5-dihydro-1H-pyrazole-1-carboximidamide], at 5-HT2B receptor [3], the inhibition at 0.1 µM stood at 5% and the inhibition at 1 µM amounted to 37%.
As to `CC1CN(C(=N)NCc2ccc(Cl)cc2)N=C1c1ccccc1O` (centres unmarked) [Example 55, N-(4-Chlorobenzyl)-3-(2-hydroxyphenyl)-4-methyl-4,5-dihydro-1H-pyrazole-1-carboximidamide], on 5-HT2B receptor [3], the inhibition at 0.001 µM was 16% and the inhibition at 0.01 µM worked out at 67%.
Regarding `CC1CN(C(=N)Nc2ccccc2)N=C1c1ccccc1O` (centres unmarked) [Example 97, 3-(2-Hydroxyphenyl)-4-methyl-N-phenyl-4,5-dihydro-1H-pyrazole-1-carboximidamide], at 5-HT2B receptor [3], the inhibition at 0.001 µM worked out at 62%, the inhibition at 0.01 µM came to 99% and the inhibition at 0.1 µM was 105%.
Regarding `Cc1ccccc1C1=NN(C(=N)N)CC1` [Example 6, 3-(2-Methylphenyl)-4,5-dihydro-1H-pyrazole-1-carboximidamide], on 5-HT2B receptor [3], the inhibition at 1 µM was 89% and the inhibition at 10 µM was determined as 99%.
In the case of `CC1CN(C(=N)Nc2ccccc2)N=C1c1cccc(Cl)c1O` (centres unmarked) [Example 89, 3-(3-Chloro-2-hydroxyphenyl)-4-methyl-N-phenyl-4,5-dihydro-1H-pyrazole-1-carboximidamide], on 5-HT2B receptor [3], the inhibition at 0.001 µM amounted to 88%, the inhibition at 0.01 µM worked out at 100% and the inhibition at 0.1 µM came out at 97%.
Regarding `N=C(N)N1CCC(c2c(O)cccc2Cl)=N1` [Example 34, 3-(2-Chloro-6-hydroxyphenyl)-4,5-dihydro-1H-pyrazole-1-carboximidamide], at 5-HT2B receptor [3], the inhibition at 0.1 µM came out at 23% and the inhibition at 1 µM was 52%.
Regarding `CC1CN(C(=N)Nc2ccc(F)cc2)N=C1c1cccc(Cl)c1O` (centres unmarked) [Example 109, 3-(3-Chloro-2-hydroxyphenyl)-N-(4-fluorophenyl)-4-methyl-4,5-dihydro-1H-pyrazole-1-carboximidamide], on 5-HT2B receptor [3], the inhibition at 0.001 µM was found to be 72%, the inhibition at 0.01 µM was 99% and the inhibition at 0.1 µM amounted to 104%.
`CC1CN(C(=N)NCC(F)(F)C(F)(F)C(F)(F)F)N=C1c1ccccc1O` (centres unmarked) [Example 93, N-(2,2,3,3,4,4,4-Heptafluorobutyl)-3-(2-hydroxyphenyl)-4-methyl-4,5-dihydro-1H-pyrazole-1-carboximidamide]: on 5-HT2B receptor [3], the inhibition at 0.001 µM worked out at 21%, the inhibition at 0.01 µM is 80% and the inhibition at 0.1 µM was determined as 98%.
For the molecule `COc1ccc(CNC(=N)N2CC(C)C(c3ccccc3O)=N2)cc1OC` (centres unmarked) [Example 60, N-(3,4-Dimethoxybenzyl)-3-(2-hydroxyphenyl)-4-methyl-4,5-dihydro-1H-pyrazole-1-carboximidamide], on 5-HT2B receptor [3], the inhibition at 0.001 µM was determined as 6% and the inhibition at 0.01 µM was 28%.
Turning to `CNC(=N)N1CCC(c2ccccc2Cl)=N1` [Example 19, 3-(2-Chlorophenyl)-N-methyl-4,5-dihydro-1H-pyrazole-1-carboximidamide], at 5-HT2B receptor [3], the inhibition at 0.1 µM was found to be 34% and the inhibition at 1 µM is 79%.
For the molecule `CCCCCCNC(=N)N1CC(C)C(c2cccc(Cl)c2O)=N1` (centres unmarked) [Example 81, 3-(3-Chloro-2-hydroxyphenyl)-N-hexyl-4-methyl-4,5-dihydro-1H-pyrazole-1-carboximidamide], on 5-HT2B receptor [3], the inhibition at 0.001 µM was 62%, the inhibition at 0.01 µM amounted to 96% and the inhibition at 0.1 µM amounted to 97%.
Consider `COc1ccc(Cl)cc1C1=NN(C(=N)N)CC1C` (centres unmarked) [Example 51, 3-(5-Chloro-2-methoxyphenyl)-4-methyl-4,5-dihydro-1H-pyrazole-1-carboximidamide], for which, on 5-HT2B receptor [3], the inhibition at 0.01 µM is 7%, the inhibition at 0.1 µM came out at 31% and the inhibition at 1 µM turned out to be 76%.
As to `N=C(N)N1CCC(c2ccc3ccccc3c2)=N1` [Example 12, 3-(Naphthalen-2-yl)-4,5-dihydro-1H-pyrazole-1-carboximidamide, reference compound], on 5-HT2B receptor [3], the inhibition at 0.1 µM was found to be 18% and the inhibition at 1 µM was 76%.
On to `COc1ccc(CNC(=N)N2CC(C)C(c3ccccc3O)=N2)cc1Cl` (centres unmarked) [Example 62, N-(3-chloro-4-methoxybenzyl)-3-(2-hydroxyphenyl)-4-methyl-4,5-dihydro-1H-pyrazole-1-carboximidamide], for which, on 5-HT2B receptor [3], the inhibition at 0.001 µM worked out at 27% and the inhibition at 0.01 µM turned out to be 72%.
For the molecule `N=C(N)N1N=C(c2ccccc2Cl)C2CCCC21` (centres unmarked) [Example 30, 3-(2-Chlorophenyl)-4,5,6,6a-tetrahydrocyclopenta[c]pyrazole-1(3aH)-carboximidamide], on 5-HT2B receptor [3], the inhibition at 0.1 µM was determined as 44% and the inhibition at 1 µM worked out at 88%.
